Publication PMC13072876 (International Journal of Molecular Sciences, 2026)
≈ marks a conversion by molar mass, not a printed value.

Assay: Water solubility, experimental
Format: physicochemical
Text: Table 5 Water solubility of tested compounds experimental [mg/mL] and predicted by the SwissADME web tool. | column: Water Solubility / [mg/mL]

SMILES | Water solubility experimental (experimental) [mg/mL] | solubility (water) [mg/mL]
COc1cc2c(c(OC)c1OC)-c1ccc(OC)c(=O)cc1[C@@H](NC(C)=O)CC2 [compound 1, colchicine] | 45 | 
COc1cccc2c1C(=O)c1c(O)c3c(c(O)c1C2=O)C[C@@](O)(C(=O)CO)C[C@@H]3O[C@H]1C[C@H](N)[C@H](O)[C@H](C)O1 [doxorubicin] |  | 50 (≈ 92 mM)
